Measured values as given in patent publication US9079866B2, “Flap modulators” (JANSSEN PHARMACEUTICA NV, priority 2013, dated 2015).
Counter-ions that a name gives are not always drawn. Like-named read-outs stand apart in the source and are kept apart here.

Key:
human FLAP = human FLAP (Homo sapiens (Human), UniProt P20292); assay: FLAP binding assay (HTRF format); settings: HTRF format
Method in brief: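 Read-out is the HTRF ratio. Each reported figure averages two assay plates on which samples were tested in duplicate.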

[1] = tested on: leukotriene pathway in human whole blood (LTB4 levels); assay: Human whole blood assay (A23187-stimulated LTB4); format: cell-based; settings: Homo sapiens, read-out: LTB4 IC50 1:1
Method in brief: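 Heparinised human whole blood diluted 1:1 in RPMI, pre-incubated 15 min at 37° Celsius with compound, then stimulated with A23187 (7 μg/mL) for 30 min at 37° Celsius. Plasma LTB4 measured by immunoassay kit; IC50 from 4-parameter fit; single replicate per plate, at least one healthy donor.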

[2] = human whole blood diluted 1:1, A23187-stimulated
[3] = human FLAP wild type, average of two plates, duplicates
[4] = human whole blood diluted 1:1 in RPMI, A23187-stimulated LTB4

Chain of human FLAP (P20292 whole entry): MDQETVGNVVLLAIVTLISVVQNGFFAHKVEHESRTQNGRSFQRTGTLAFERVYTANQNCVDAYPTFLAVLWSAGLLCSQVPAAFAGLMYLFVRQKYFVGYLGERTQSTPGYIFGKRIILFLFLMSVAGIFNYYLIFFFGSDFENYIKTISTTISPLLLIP

Row | Compound | Ki (human FLAP; wild type FLAP) [nM] | IC50 [1, 2] [nM] | Ki (human FLAP; [3]) [nM] | IC50 [1, 4] [nM]
1 | Fc1cc(-c2ccccc2Oc2ncccn2)ccc1-c1ccc2[nH]cnc2c1 [Example 543, 5-[3-Fluoro-2′-(pyrimidin-2-yloxy)biphenyl-4-yl]-1H-benzimidazole] | 444 | 4160 | – | –
2 | Nc1cnc(-c2ccc(-c3ccccc3S(=O)(=O)N3CCC(O)CC3)cc2F)cn1 [Example 67, 1-{[4′-(5-Aminopyrazin-2-yl)-3′-fluorobiphenyl-2-yl]sulfonyl}piperidin-4-ol] | – | – | 3 | 12
3 | C[C@H](O)CNS(=O)(=O)c1ccccc1-c1ccc(-c2cnc(N)nc2)nc1 [Example 688, 2-[6-(2-Aminopyrimidin-5-yl)pyridin-3-yl]-N-[(2S)-2-hydroxypropyl]benzenesulfonamide] | 696 | 1180 | – | –
4 | Nc1cnc(-c2ccc(-c3ccccc3CSc3nccc(N)n3)cc2F)cn1 [Example 237, 2-(((4′-(5-Aminopyrazin-2-yl)-3′-fluoro-[1,1′-biphenyl]-2-yl)methyl)thio)pyrimidin-4-amine hydrochloride] | – | – | 8 | 134
5 | CN1CCN(S(=O)(=O)c2cc(C(F)(F)F)ccc2-c2ccc(-c3cnc(N)nc3)c(F)c2)CC1 [Example 328, 5-{3-Fluoro-2′-[(4-methylpiperazin-1-yl)sulfonyl]-4′-(trifluoromethyl)biphenyl-4-yl}pyrimidin-2-amine] | – | – | 15 | 119
6 | Nc1cnc(-c2ccc(-c3ccccc3S(=O)(=O)c3nccc(N)n3)cc2F)cn1 [Example 727, 2-{[4′-(5-Aminopyrazin-2-yl)-3′-fluorobiphenyl-2-yl]sulfonyl}pyrimidin-4-amine] | 484 | 1170 | – | –
7 | CCN(CC)C(=O)CSc1ccccc1-c1ccc(-c2cnc(N)cn2)c(F)c1 [Example 201, 2-{[4′-(5-Aminopyrazin-2-yl)-3′-fluorobiphenyl-2-yl]sulfanyl}-N,N-diethylacetamide] | – | – | 21 | 358
8 | Nc1cnc(-c2ccc(-c3ccccc3C(=O)N3CCS(=O)(=O)CC3)cc2F)cn1 [Example 509, 5-{2′-[(1,1-Dioxidothiomorpholin-4-yl)carbonyl]-3-fluorobiphenyl-4-yl}pyrazin-2-amine] | 147 | 93 | – | –
9 | CC(C)N(CCO)S(=O)(=O)c1ccccc1-c1ccc(-c2cnc(N)nc2)c(F)c1 [Example 261, 4′-(2-Aminopyrimidin-5-yl)-3′-fluoro-N-(2-hydroxyethyl)-N-(1-methylethyl)biphenyl-2-sulfonamide] | – | – | 6 | 75
10 | C[C@H](NS(=O)(=O)c1ccccc1-c1ccc(-c2cnc(N)cn2)c(F)c1)C(=O)O [Example 156, (S)-2-(4′-(5-Aminopyrazin-2-yl)-3′-fluoro-[1,1′-biphenyl]-2-ylsulfonamido)propanoic acid] | – | – | 351 | > 10000
11 | CCN(CC)S(=O)(=O)c1ccccc1-c1ccc(-c2cnc3c(c2)OCCN3)c(F)c1 [Example 391, 4′-(3,4-Dihydro-2H-pyrido[3,2-b][1,4]oxazin-7-yl)-N,N-diethyl-3′-fluorobiphenyl-2-sulfonamide] | – | – | 2 | 56
12 | Cc1nc(N)cc(Oc2ccccc2-c2ccc(-c3cnc(N)nc3)c(F)c2)n1 [Example 622, 5-{2′-[(6-Amino-2-methylpyrimidin-4-yl)oxy]-3-fluorobiphenyl-4-yl}pyrimidin-2-amine] | 46.1 | 340 | – | –
13 | O=C(c1ccccc1-c1ccc(-c2cnc3[nH]ccc3c2)c(F)c1)N1CCOCC1 [Example 498, 5-[3-Fluoro-2′-(morpholin-4-ylcarbonyl)biphenyl-4-yl]-1H-pyrrolo[2,3-b]pyridine] | 16 | 111 | – | –
14 | CNS(=O)(=O)c1ccccc1-c1ccc(-c2cnc(N)nc2)c(F)c1F [Example 465, 4′-(2-Aminopyrimidin-5-yl)-2′,3′-difluoro-N-methylbiphenyl-2-sulfonamide trifluoroacetic acid salt] | 186 | 957 | – | –
15 | Nc1cnc(-c2ccc(-c3ccccc3S(=O)(=O)N(CCO)C3CCCCC3)cc2F)cn1 [Example 136, 4′-(5-Aminopyrazin-2-yl)-N-cyclohexyl-3′-fluoro-N-(2-hydroxyethyl)biphenyl-2-sulfonamide] | – | – | 1 | 15
16 | CN(C)C1CCN(S(=O)(=O)c2ccccc2-c2ccc(-c3cnc(N)cn3)c(F)c2)CC1 [Example 73, 5-(2′-{[4-(Dimethylamino)piperidin-1-yl]sulfonyl}-3-fluorobiphenyl-4-yl)pyrazin-2-amine] | – | – | 62 | 77
17 | Cc1cnc(NS(=O)(=O)c2ccccc2-c2ccc(-c3cnc(N)cn3)c(F)c2)cn1 [Example 167, 4′-(5-Aminopyrazin-2-yl)-3′-fluoro-N-(5-methylpyrazin-2-yl)biphenyl-2-sulfonamide] | – | – | 47 | 442
18 | CC(C)(NS(=O)(=O)c1ccccc1-c1ccc(-c2ccc(N)nc2)c(F)c1)C(F)(F)F [Example 350, 4′-(6-Aminopyridin-3-yl)-3′-fluoro-N-(1,1,1-trifluoro-2-methylpropan-2-yl)-[1,1′-biphenyl]-2-sulfonamide] | – | – | 2 | 26

Row | Compound | Ki (human FLAP; wild type FLAP) [nM] | IC50 [1, 2] [nM] | Ki (human FLAP; [3]) [nM] | IC50 [1, 4] [nM]
19 | Nc1cnc(-c2ccc(-c3ccccc3S(=O)(=O)N[C@@H]3CCCC[C@@H]3O)cc2F)cn1 [Example 87, 4′-(5-Aminopyrazin-2-yl)-3′-fluoro-N-[(1R,2S)-2-hydroxycyclohexyl]biphenyl-2-sulfonamide] | – | – | 3 | 75
20 | Nc1ncc(-c2ccc(-c3ccc(C(F)(F)F)cc3Oc3ccnc(N)n3)cn2)cn1 [Example 565, 4-{2-[6-(2-Aminopyrimidin-5-yl)pyridin-3-yl]-5-(trifluoromethyl)phenoxy}pyrimidin-2-amine] | 81 | 984 | – | –
21 | Nc1cnc(-c2ccc(-c3ccccc3-c3cnc(N)nc3)cc2F)cn1 [Example 843, 5-[4′-(5-Aminopyrazin-2-yl)-3′-fluorobiphenyl-2-yl]pyrimidin-2-amine] | 15.6 | 44.3 | – | –
22 | N#Cc1cccc(Oc2ccccc2-c2ccc(-c3cnc(N)cn3)c(F)c2)n1 [Example 619, 6-{[4′-(5-Aminopyrazin-2-yl)-3′-fluorobiphenyl-2-yl]oxy}pyridine-2-carbonitrile] | 3.4 | 45.1 | – | –
23 | Nc1ncc(-c2ccc(-c3ccc(C(F)(F)F)cc3C(=O)N3CCOCC3)cc2F)cn1 [Example 522, 5-[3-Fluoro-2′-(morpholin-4-ylcarbonyl)-4′-(trifluoromethyl)biphenyl-4-yl]pyrimidin-2-amine] | 348 | 393 | – | –
24 | Fc1cc(-c2ccccc2Oc2ncccn2)ccc1-c1cnc2[nH]ccc2c1 [Example 525, 5-[3-Fluoro-2′-(pyrimidin-2-yloxy)biphenyl-4-yl]-1H-pyrrolo[2,3-b]pyridine] | 3 | 36 | – | –
25 | N#CCOc1ccccc1-c1ccc(-c2cnc(N)nc2)c(F)c1 [Example 643, {[4′-(2-Aminopyrimidin-5-yl)-3′-fluorobiphenyl-2-yl]oxy}acetonitrile] | 322 | 4290 | – | –
26 | CN([C@@H]1CCCNC1)S(=O)(=O)c1ccccc1-c1ccc(-c2cnc(N)cn2)c(F)c1 [Example 114, (R)-4′-(5-Aminopyrazin-2-yl)-3′-fluoro-N-methyl-N-piperidin-3-ylbiphenyl-2-sulfonamide] | – | – | 12 | 221
27 | C[C@@H](O)CNS(=O)(=O)c1ccccc1-c1cnc(-c2cnc(N)nc2)c(F)c1 [Example 673, 2-[6-(2-Aminopyrimidin-5-yl)-5-fluoropyridin-3-yl]-N-[(2R)-2-hydroxypropyl]benzenesulfonamide] | 134 | 101 | – | –
28 | CNS(=O)(=O)c1ccccc1-c1ccc(-c2ccc3[nH]cnc3c2)c(F)c1 [Example 423, 4′-(1H-Benzimidazol-5-yl)-3′-fluoro-N-methylbiphenyl-2-sulfonamide] | 284 | 4800 | – | –
29 | Nc1ncc(-c2ccc(-c3cccnc3S(=O)(=O)C3CCC3)cc2F)cn1 [Example 805, 5-(4-(2-(Cyclobutylsulfonyl)pyridin-3-yl)-2-fluorophenyl)pyrimidin-2-amine hydrochloride] | 29.7 | 353 | – | –
30 | Nc1cnc(-c2ccc(-c3ccccc3Oc3cc(C4CC4)ncn3)cc2F)cn1 [Example 636, 5-{2′-[(6-Cyclopropylpyrimidin-4-yl)oxy]-3-fluorobiphenyl-4-yl}pyrazin-2-amine] | 4.6 | 107 | – | –
31 | CCN(CC)S(=O)(=O)c1ccccc1-c1ccc(-c2csc(N)n2)c(F)c1 [Example 578, 4′-(2-Amino-1,3-thiazol-4-yl)-N,N-diethyl-3′-fluorobiphenyl-2-sulfonamide] | 25 | 956 | – | –
32 | Nc1cnc(-c2ccc(-c3ccccc3-c3cnc(N)cn3)cc2F)cn1 [Example 840, 5,5′-(3′-Fluorobiphenyl-2,4′-diyl)dipyrazin-2-amine] | 12.7 | 99.6 | – | –
33 | Nc1cnc(-c2ccc(-c3ccccc3S(=O)(=O)N3CCC(F)(F)C3)cc2F)cn1 [Example 51, 5-{2′-[(3,3-Difluoropyrrolidin-1-yl)sulfonyl]-3-fluorobiphenyl-4-yl}pyrazin-2-amine] | – | – | 4 | 42
34 | CC(C)(C#N)S(=O)(=O)c1ccccc1-c1ccc(-c2cnc(N)cn2)c(F)c1 [Example 735, 2-{[4′-(5-Aminopyrazin-2-yl)-3′-fluorobiphenyl-2-yl]sulfonyl}-2-methylpropanenitrile] | 32 | 272 | – | –
35 | Nc1cnc(-c2ccc(-c3ccccc3S(=O)(=O)N[C@@H](c3ccccc3)C(F)(F)F)cc2F)cn1 [Example 19, (S)-4′-(5-Aminopyrazin-2-yl)-3′-fluoro-N-[(1S)-2,2,2-trifluoro-1-phenylethyl]biphenyl-2-sulfonamide] | – | – | 2 | 50
